{
  "source": "patent US20180016289A1",
  "about": "“REDOX-SENSITIVE VESICLES” (THE ROYAL INSTITUTION FOR THE ADVANCEMENT OF …, priority 2015, published 2018)",
  "experiment": "Cyclic voltammetry (CV) in acetonitrile",
  "assay_type": "physicochemical",
  "conditions": "0.1 M TBA-PF6, glassy carbon electrode, 50 mV.s^−1, Ag wire coated with AgCl reference, 1 mM",
  "procedure": "FIG. 6: Cyclic voltammetry (CV) measurements conducted in acetonitrile using 0.1 M of TBA-PF6 as the electrolyte. All the measurements were conducted at a scan rate of 50 mV.s^−1 using a glassy carbon (Ø=3 mm) electrode as a working electrode, Pt wire as a counter electrode and Ag wire coated with AgCl as a reference electrode. (A) Voltammogram of a 1 mM ferroceneacetic acid solution (B) voltammogram of a 1 mM phospholipid 2 solution. (C) Voltammogram of a 1 mM phospholipid 3 solution.\nFIG. 14: (A) Synthesis of Fc-DSP (3) from ferroceneacetic acid (1) and DSPE (2) using a detailed reaction and another graphical representation that are used in FIGS. 15-17 (B) CV measurements conducted in acetonitrile using 0.1 M of TBA-PF6 as the electrolyte. All measurements were conducted at a scan rate of 50 mV.s^−1 using a glassy carbon (Ø=3 mm) electrode as a working electrode, Pt wire as a counter electrode and Ag wire coated with AgCl as a reference electrode. (black) Voltammogram of a 1 mM phospholipid 2 solution. (red) Voltammogram of 1 mM phospholipid 3 solution.\nCyclic voltammetry (CV) and scanning electrochemical microscopy (SECM) measurements were performed with an HEKA Electrochemical Probe Scanner 3 or Probe Scanner 1 (HEKA Elektronik Dr. Schulze GmbH, Germany). […]",
  "data": [
    {"substance": "ferroceneacetic acid [compound 1]", "values": [
      {"measurement": "reversible oxidation reduction of the ferrocene (potential)", "value": 0.42, "unit": "V"}
    ]}
  ]
}
